Reference: article PMC8880313, “Discovery of Novel Andrographolide Derivatives as Antiviral Inhibitors against Human Enterovirus A71” (Pharmaceuticals, 2022)

What was measured:
Echo7 = assay: Post-treatment assay, antiviral spectrum; format: cell-based, Echovirus 7 strain Wallace
Protocol: (§1) We were also interested in the antiviral potential of ZAF-47 against other Enteroviruses. As such, we performed post-treatment assay on RD cells infected with other Enteroviruses such as CV-A16, CV-A6, Echo7, CV-B5, CV-A24 and EV-D68.
(§2) To determine the inhibitory profiles of the hits, post treatment assay was performed. Seeded 24-well plates, with 1.5 × 10^5 RD cells per well, were incubated overnight at 37 °C with 5% CO2. The seeded cells were infected with EV-A71 (100 µL per well, MOI = 1) for 1 h at 37 °C with 5% CO2 and then rinsed with 1 mL of PBS twice. Different concentrations of the hits were used to treat the infected cells for 12 h at 37 °C with 5% CO2. At 12 hpi, the plates were frozen and thawed for 2 cycles (−80°C; 37 °C) before collection of supernatants to measure the viral titres via viral plaque assay.
(§3) Measurement of the viral titres from collected supernatants was derived from viral plaque assays. To do this, 24-well plates, seeded with 2.4 × 10^5 RD cells per well, were used in plaque assays for EV-A71, EV-D68, Echo7, CV-A6, CV-A16 and CV-A24 while 24-well plates, seeded with 1.2 × 10^5 Vero cells per well, were used in plaque assays for CV-B5. Seeded cells were incubated overnight at 37 °C with 5% CO2. […] Subsequent formation of viral plaques was counted manually to quantify the viral titre in PFU/mL […]

EV-D68 = assay: Post-treatment assay, antiviral spectrum; format: cell-based, Enterovirus D68
Protocol: as §1, §2, §3

EV-A71 RNA = assay: Entry bypass assay (EV-A71 RNA transfection); format: cell-based, human enterovirus A71 (EV-A71) strain 41; details: 12 hpi
Protocol: To confirm this finding, assays to investigate the effect of ZAF-47 on EV-A71 entry into cells were performed. With pre-treatment assay, we first treated the cells with different concentrations of ZAF-47 before subjecting them to EV-A71 infection. The aim was to investigate if ZAF-47 was able to bind to host surface receptors which would prevent the virions from binding and thus blocking viral entry. […] Even at the highest concentration, the reduction in viral titre (0.8 log10 PFU/mL decrease) was not as pronounced as post-treatment and could likely be due to drug toxicity. Thus, it is unlikely that ZAF-47 inhibits EV-A71 infection by binding with host receptors to block viral entry. With co-treatment assay, we first treated EV-A71 virions with ZAF-47 for 30 min before infecting the cells. The aim was to investigate if ZAF-47 was able to bind to viral surface proteins which would prevent the virions from binding to the host receptors and thus blocking viral entry. […] Thus, it is unlikely that ZAF-47 blocks EV-A71 entry into host cells by binding to viral surface proteins. Instead, using entry bypass assay, we were able to deduce that ZAF-47 most likely targets EV-A71 post-entry stages. […]
Seeded 24-well plates, with 1.5 × 10^5 RD cells per well, were incubated overnight at 37 °C with 5% CO2. […] The plates were frozen down at 12 hpi for viral titre quantification using viral plaque assay.

CC(=O)OC[C@]1(C)C(=O)CC[C@@]2(C)C(C/C=C3/C(=O)OC[C@@H]3Oc3cccc4cccnc34)=C(C)CC[C@@H]21 [ZAF-47, (14β)-(8′-Quinolinoxy)-3-ketone-9-dehydro-17-hydro-19-acetoxy–andrographolide]
viral titre (Echo7; 10 µM, Echo7-infected RD cells): reducing the viral titres of the above-listed enteroviruses significantly | IC50 (Echo7; Echo7, Enterovirus B, drug treatment duration 12 h, RD cells): 6.7 µM | viral titre (EV-D68; 10 µM, EV-D68-infected RD cells): reducing the viral titres of the above-listed enteroviruses significantly | IC50 (EV-D68; EVD68, EV-D68, Enterovirus D, drug treatment duration 12 h, RD cells): 5.1 µM | viral reduction (EV-A71 RNA; 10 µM): 0.9 log | viral reduction (EV-A71 RNA; 20 µM): 2.6 log
